Read-outs that look alike come from different tables or passages of the source.
How the values were obtained:
[1] = test system: NF-κB; test: NF-κB transactivation luciferase assay in THP-1 NF-κB-Luc cells; type: cell-based, human; details: 100 nM plitidepsin, 6 hours; with poly I:C, LPS-B5 or Resiquimod (TLR ligands)
Procedure: Luminescence was measured in a Perkin-Elmer EnVision reader.

[2] = test system: alveolar macrophages; test: LPS animal inflammation model: macrophages in bronchoalveolar lavage by flow cytometry; type: in vivo, mouse; details: mice 1 mg/kg single i.v., LPS 20 µg/kg i.p.
Description: Three hours later, bronchoalveolar lavages were collected.

[3] = Pharmacokinetics in patients; type: in vivo; details: both sexes, plasma, Human (M/F), 0.135 mg/kg (Recommended Dose 5 mg/m2), 3-h intravenous infusion
[4] = test system: SARS-CoV-2; test: SARS-CoV-2 replication in human stem cell-derived pneumocyte like cells; type: cell-based; details: 10 nm plitidepsin for 1 hour before infection; 48 hour incubation
Procedure: Several in vitro experiments aimed at determining the effect of plitidepsin on SARS-CoV-2 were carried out and are disclosed herein. […] In another study, human stem cell-derived pneumocyte like cells were prophylactically exposed to 10 nm plitidepsin for 1 hour and then infected with SARS-CoV-2 (4 × 10^4 plaque forming units). After a 48 hour incubation period, both antiviral and cytotoxic plitidepsin effects were determined.

[5] = test system: SARS-CoV-2; test: APLICOV-PC clinical study in patients hospitalised for COVID-19: efficacy; type: in vivo, human
[6] = Stability of plitidepsin drug product and reconstituted solution; type: physicochemical
Procedure: Plitidepsin will be labelled with the study protocol code, the batch number, the content, the expiry date, the storage conditions, the name of the investigator and the sponsor. The study drug will be labelled in accordance with Annex 13 of the European Good Manufacturing Practices. Plitidepsin should be stored between 2° C. and 8° C. and the vials should be kept in the outer carton to protect them from light. The drug in these conditions is stable for 60 months.
After reconstitution of the 2 mg plitidepsin vial with 4 ml of the solution for reconstitution of macrogolglycerol ricinoleate/ethanol/water for injection, the reconstituted solution should be diluted and used immediately after preparation. If not used immediately, storage times and conditions until use are the responsibility of the user. […] If storage is required before administration, solutions should be stored refrigerated and protected from light and should be used within 24 hours after reconstitution.

[7] = test system: SARS-CoV-2; test: SARS-CoV-2 cytopathic effect in Vero E6 cells (CellTiter-Glo); type: cell-based; details: Severe acute respiratory syndrome coronavirus 2, Vero C1008, 72 h, 3 days post infection, two experiments with two replicates each, read-out: IC50 viral-induced cytopathic effect (mean and standard deviation)
Procedure: Vero E6 cells (ATCC CRL-1586) were cultured in Dulbecco’s modified Eagle medium, (DMEM; Lonza) supplemented with 5% fetal calf serum (FCS; EuroClone), 100 U/mL penicillin, 100 µg/mL streptomycin, and 2 mM glutamine (all ThermoFisher Scientific).
Plitidepsin was used at a concentration ranging from 100 µM to 0.0512 nM at ⅕ serial dilutions, and also assayed from 10 µM to 0.5 nM at ⅓ dilutions.
Increasing concentrations of Plitidepsin was added to Vero E6 cells together with 10^1.8 TCID50/mL of SARS-CoV-2, a concentration that achieves a 50% of cytopathic effect. Non-exposed cells were used as negative controls of infection. In order to detect any drug-associated cytotoxic effect, Vero E6 cells were equally cultured in the presence of increasing drug concentrations, but in the absence of virus. Cytopathic or cytotoxic effects of the virus or drugs were measured at 3 days post infection, using the CellTiter-Glo luminescent cell viability assay (Promega). Luminescence was measured in a Fluoroskan Ascent FL luminometer (ThermoFisher Scientific).
Response curves were adjusted to a non-linear fit regression model, calculated with a four-parameter logistic curve with variable slope. […] Statistical differences from 100% were assessed with a one sample t test. […]

[8] = Cell biomass (DAPI) in Vero-E6 cells; type: cell-based, African green monkey; details: African green monkey, Vero-E6 cells, VeroE6 cells, read-out: CC50 based on cell biomass
Procedure: (§1) Relative infection efficiency was assessed by automated fluorescence microscopy in the green channel and overall cell biomass/well was estimated by nuclear staining with DAPI in the blue channel, as a preliminary assessment of the compound effective doses as well as overall compound cytotoxicity.
(§2) Cells were fixed by addition of a 5X formaldehyde solution to achieve a 4% final concentration for 30 mins at room temperature. Cells were washed with PBS and stained with DAPI (4′,6-diamidino-2-phenylindole) following manufacturer’s recommendations. Relative infection efficiency was estimated by image analysis in an automated microscopy device (Tecan Spark Cyto). Uninfected cells and vehicle-treated controls were included in each plate.

[9] = test system: Vero-E6 cells; test: Cell biomass (DAPI) in Vero-E6 cells; type: cell-based, African green monkey; details: VeroE6 cells, 48 hours
Procedure: as §1, §2

[10] = test system: WNV-NY99 (lineage 1); type: cell-based, West Nile virus; details: for Intracellular WNV RNA load (RT-qPCR): Vero-E6 cells
[11] = test system: WNV-GFP (lineage 2; molecular clone WN956)
[12] = test system: WNV-NY99 (lineage 1); details: Huh-7 cells
[13] = target: eEF1A purified from rabbit muscle (Oryctolagus cuniculus, UniProt Q71V39); test: Binding of 14C-plitidepsin to purified eEF1A
Chain of eEF1A purified from rabbit muscle (Q71V39 whole entry): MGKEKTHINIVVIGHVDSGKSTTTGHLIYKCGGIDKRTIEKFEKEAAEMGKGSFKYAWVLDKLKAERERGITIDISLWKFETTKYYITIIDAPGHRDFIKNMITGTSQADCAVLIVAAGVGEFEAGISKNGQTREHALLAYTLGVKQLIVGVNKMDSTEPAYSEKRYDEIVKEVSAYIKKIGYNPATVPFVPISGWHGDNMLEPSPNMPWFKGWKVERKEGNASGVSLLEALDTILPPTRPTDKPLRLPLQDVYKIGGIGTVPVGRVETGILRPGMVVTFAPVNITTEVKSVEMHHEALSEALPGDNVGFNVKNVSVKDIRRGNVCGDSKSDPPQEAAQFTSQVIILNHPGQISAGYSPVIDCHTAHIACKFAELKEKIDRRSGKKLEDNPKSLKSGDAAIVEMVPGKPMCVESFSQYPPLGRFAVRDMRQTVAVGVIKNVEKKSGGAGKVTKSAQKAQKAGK

[14] = test system: SARS-CoV-2; test: SARS-CoV-2 dose-response curve analysis by immunofluorescence in Vero cells

CC[C@H](C)[C@H]1NC(=O)[C@@H](NC(=O)[C@@H](CC(C)C)N(C)C(=O)[C@@H]2CCCN2C(=O)C(C)=O)[C@@H](C)OC(=O)[C@H](Cc2ccc(OC)cc2)N(C)C(=O)[C@@H]2CCCN2C(=O)[C@H](CC(C)C)NC(=O)[C@@H](C)C(=O)[C@H](C(C)C)OC(=O)C[C@@H]1O [plitidepsin]
NF-κB transactivation (luciferase activity) [1]: clearly inhibited the production of luciferase
Macrophages in bronchoalveolar lavage [2]: decrease the percentage of macrophages presents on bronchoalveolar lavage without cytotoxic effects
AUC(0-inf) [3]: 256 ng·h/mL
Cmax [3]: 29.1 ng/mL
clearance [3]: 11.7 to 15 mL/min/kg
Vd ([3]; read-out: Vdss): 29 to 33 L/kg
half-life ([3]; read-out: t½): 20 to 80 h
SARS-CoV-2 replication [4]: completely eliminated replication of SARS-CoV-2
Mean time from baseline until undetectable viral load [5]: 11 days
Mortality from Day 1 to Day 7 [5]: 0 n (%)
Mortality from Day 1 to Day 15 [5]: 0 n (%)
Mortality from Day 1 to Day 31 [5]: 2 (4.5) n (%)
Patients requiring ICU admission from Day 1 to Day 7 [5]: 5 (11.4) n (%)
Patients requiring ICU admission from Day 1 to Day 15 [5]: 6 (13.6) n (%)
Patients requiring ICU admission from Day 1 to Day 31 [5]: 6 (13.6) n (%)
Patients requiring invasive mechanical ventilation and/or ICU admission from Day 1 to Day 7 [5]: 5 (11.4) n (%)
Patients requiring invasive mechanical ventilation and/or ICU admission from Day 1 to Day 15 [5]: 6 (13.6) n (%)
Patients requiring invasive mechanical ventilation and/or ICU admission from Day 1 to Day 31 [5]: 6 (13.6) n (%)
Patients requiring noninvasive mechanical ventilation from Day 1 to Day 7 [5]: 4(9.1) n (%)
Patients requiring noninvasive mechanical ventilation from Day 1 to Day 15 [5]: 5 (11.4) n (%)
Patients requiring noninvasive mechanical ventilation from Day 1 to Day 31 [5]: 6 (13.6) n (%)
Mean change in viral load from baseline to Day 4 ([5]; 96 h): -1.90 log10 copies/mL
Mean change in viral load from baseline to Day 7 ([5]; 168 h): -3.07 log10 copies/mL
Mean reduction in viral load ([5]; 168 h): -3.1 log10 copies/mL
Patients requiring oxygen therapy at Day 7 ([5]; 168 h): 31 (70.5) n (%)
Patients discharged from hospital by Day 8 ([5]; 192 h): 25 (56.8) n (%)
Mean change in viral load from baseline to Day 15 ([5]; 360 h): -4.48 log10 copies/mL
Mean reduction in viral load ([5]; 360 h): -4.5 log10 copies/mL
Patients discharged from hospital by Day 15 ([5]; 360 h): 36 (81.8) n (%)
Patients requiring oxygen therapy at Day 15 ([5]; 360 h): 9 (20.5) n (%)
Reduction in viral load ([5]; 360 h): -3.0 log
Mean change in viral load from baseline to Day 31 ([5]; 744 h): -5.27 log10 copies/mL
Patients discharged from hospital by Day 31 ([5]; 744 h): 40 (90.9) n (%)
Patients requiring oxygen therapy at Day 31 ([5]; 744 h): 3 (6.8) n (%)
Physical, chemical and microbiological stability of reconstituted concentrated solution ([6]; original vial under indoor light at room temperature): 6 hours
Physical, chemical and microbiological stability of reconstituted concentrated solution ([6]; refrigerated conditions (5° C.±3° C.)): 24 hours
Stability of the drug (vials) ([6]; stored between 2° C. and 8° C., protected from light): 60 months
IC50 [7]: 60 ± 20 nM
CC50 at 48 h [8]: 2330 nM
Concentration up to which cell number remained unchanged [9]: up to 36 nM
Reduction of extracellular infectivity titers ([10]; 45 nM, VeroE6 cells, 48 hours): > 3 orders of magnitude
Intracellular WNV RNA load (RT-qPCR) ([10]; 5 and 1.5 nM): not distinguishable from those in the control
Intracellular WNV RNA load (RT-qPCR) ([10]; 15 and 45 nM): significantly decreased in a dose-dependent manner
Concentration with antiviral activity in the absence of measurable interference with cell viability (p<0.05) ([11]; Vero-E6 cells): 7.2 nM
Therapeutic index (CC50/EC50) ([11]; VeroE6 cells): 475
Concentration reaching background fluorescence levels ([11]; VeroE6 cells, 48 hours): ≥ 36 nM
Intracellular WNV RNA load (RT-qPCR) ([12]; 15 nM): marked reduction in viral load
Total cellular RNA recovery ([12]; 45 nM): no RNA could be recovered
Reduction of extracellular infectivity titers ([12]; 45 nM, 48 hours): > 3 orders of magnitude
Binding affinity to eEF1A [13]: high affinity
Rate of dissociation from eEF1A [13]: low rate of dissociation
SI [14]: 49.95-129.92
IC50 ([14]; read-out: IC50 inhibition of virus infection, Vero cells, MOI 0.0125, 24 hpi, three repeats): 3.3 to 3.9 nM

— patent US20230295236A1, “COMPOUNDS FOR USE IN INFLAMMATORY CONDITIONS” (priority 2020, published 2023)
